From ChEMBL document CHEMBL6096702, “Discovery of a Novel p38α-MK2 Complex Inhibitor as a Potential Choice for Autoimmune Diseases” (J Med Chem, 2025)

Assays:
[1] = Selectivity ratio of IC50 for inhibition of N-terminal GST-tagged wildtype human P38alpha (4 to 152 residues) extracted from Escherichia coli/GST-tagged PRAK (unknown origin) to IC50 for inhibition of N-terminal GST-tagged wildtype human P38alpha (4 to 152 residues) extracted from Escherichia coli/GST-tagged MK2 (unknown origin)
[2] = Half-life in male Sprague-Dawley rat at 1 mg/kg, iv measured after 24 hrs by LC-MS/MS analysis; assay type: ADME, organism-based; settings: in vivo
[3] = Inhibition of N-terminal GST-tagged wildtype human P38alpha (4 to 152 residues) extracted from Escherichia coli/GST-tagged PRAK (unknown origin) assessed as reduction in HSP27 phosphorylation incubated for 2 hrs in presence of ATP and HSP27-FITC peptide by fluorescence polarization based IMAP assay
[4] = Inhibition of N-terminal GST-tagged wildtype human P38alpha (4 to 152 residues) extracted from Escherichia coli/GST-tagged MK2 (unknown origin) assessed as reduction in HSP27 phosphorylation incubated for 2 hrs in presence of ATP and HSP27-FITC peptide by fluorescence polarization based IMAP assay
[5] = MRT in male Sprague-Dawley rat at 1 mg/kg, iv measured after 24 hrs by LC-MS/MS analysis; assay type: ADME, organism-based; settings: in vivo
[6] = AUClast in male Sprague-Dawley rat at 2 mg/kg, po measured after 24 hrs by LC-MS/MS analysis; assay type: ADME, organism-based; settings: in vivo
[7] = Cmax in male Sprague-Dawley rat at 2 mg/kg, po measured after 24 hrs by LC-MS/MS analysis; assay type: ADME, organism-based; settings: in vivo
[8] = AUClast in male Sprague-Dawley rat at 1 mg/kg, iv measured after 24 hrs by LC-MS/MS analysis; assay type: ADME, organism-based; settings: in vivo
[9] = Oral bioavailability in male Sprague-Dawley rat at 2 mg/kg measured after 24 hrs by LC-MS/MS analysis; assay type: ADME, organism-based; settings: in vivo
[10] = Clearance in male Sprague-Dawley rat at 1 mg/kg, iv measured after 24 hrs by LC-MS/MS analysis; assay type: ADME, organism-based; settings: in vivo
[11] = Volume of distribution at steady state in male Sprague-Dawley rat at 1 mg/kg, iv measured after 24 hrs by LC-MS/MS analysis; assay type: ADME, organism-based; settings: in vivo, read-out: Vdss

In the case of Cc1cnc(-c2cccc(C(C)(C)O)c2)c(F)c1-n1c(C)cc(O[C@@H](C)c2ncc(F)cc2F)c(Cl)c1=O, the Ratio IC50 [1] is reported as 1990, the half-life [2] is reported as 2.2 h and the IC50 [3] is reported as 3780 nM. For the same compound, the IC50 [4] was 1.9 nM, the MRT [5] was 3 h and the AUC(0-t) at 24 h [6] was 8050 ng·h/mL. For the same compound, the Cmax [7] was 1030 ng/mL, the AUC(0-t) at 24 h [8] was 3230 ng·h/mL and the bioavailability [9] was 125%. For the same compound, the clearance [10] was 5 mL/min/kg and the Vd [11] was 0.9 L/kg.
Work on Cc1cnc(-c2cc(C(C)(C)O)ccc2F)c(F)c1-n1c(C)cc(OCc2ncc(F)cc2F)c(Cl)c1=O yielded a Ratio IC50 [1] of 0.2, an IC50 [3] of 2.9 nM and an IC50 [4] of 17.2 nM.
For Cc1cnc(-c2ccnc(C(C)(C)O)n2)cc1-n1ncc(OCc2ncc(F)cc2F)c(Cl)c1=O, the IC50 [4] was 1150 nM.
In the case of Cc1cnc(-c2cc(C(C)(C)O)ccc2Cl)c(F)c1-n1c(C)cc(OCc2ncc(F)cc2F)c(Cl)c1=O, the IC50 [4] is reported as 19 nM.
In the case of Cc1cnc(-c2ccnc(C(C)(C)O)n2)cc1-c1c(C)c(Cl)c(OCc2ncc(F)cc2F)c[n+]1[O-], the IC50 [4] is reported as greater than 10000 nM.
In the case of Cc1cnc(-c2cc(C(C)(C)O)ccc2F)c(F)c1-n1c(C)cc(O[C@@H](C)c2ncc(F)cc2F)c(Cl)c1=O, the IC50 [4] is reported as 61 nM.
With Cc1cnc(-c2cccc(C(C)(C)O)c2F)c(F)c1-n1c(C)cc(O[C@@H](C)c2ncc(F)cc2F)c(C)c1=O the Ratio IC50 [1] was 246, the IC50 [3] was 394 nM and the IC50 [4] was 1.6 nM.
Compound Cc1cnc(-c2cccc(C(C)(C)O)n2)cc1-n1c(C)cc(OCc2ncc(F)cc2F)c(Cl)c1=O has a Ratio IC50 [1] of 333, an IC50 [3] of 999 nM and an IC50 [4] of 3 nM.
For C=Cc1c(O[C@@H](C)c2ncc(F)cc2F)cc(C)n(-c2c(C)cnc(-c3ccnc(C(C)(C)O)n3)c2F)c1=O, the IC50 [4] was 34 nM.
Cc1cnc(-c2ccnc(C(C)(C)O)n2)c(F)c1-n1c(C)cc(O[C@@H](C)c2ncc(F)cc2F)c(C2CC2)c1=O gave an IC50 [4] of 32 nM.
In the case of Cc1cnc(-c2ccnc(C(C)(C)O)n2)cc1-n1c(C)cc(OC2CN(c3ncc(F)cc3F)C2)c(Cl)c1=O, the IC50 [4] is reported as 284 nM.
Cc1cnc(-c2ccnc(C(C)(C)O)n2)cc1-n1c(C)cc(O[C@@H](C)c2ncc(F)cc2F)c(Cl)c1=O showed an IC50 [4] greater than 1000 nM.
Cc1cnc(-c2ccnc(C(C)(C)O)n2)cc1-n1c(C)cc(SCc2ncc(F)cc2F)c(Cl)c1=O showed an IC50 [4] of 22.6 nM.
Cc1cnc(-c2ccnc(C(C)(C)O)n2)c(F)c1-n1c(C)cc(O[C@@H](C)c2ncc(F)cc2F)c(C(C)C)c1=O showed an IC50 [4] of 92 nM.
In the case of Cc1cnc(-c2cccc(C(C)(C)O)c2)c(F)c1-n1c(C)cc(OCc2ncc(F)cc2F)c(Cl)c1=O, the Ratio IC50 [1] is reported as 1010, the half-life [2] is reported as 1.5 h and the IC50 [3] is reported as 506 nM. The IC50 [4] was 0.5 nM, the MRT [5] was 1.2 h and the AUC(0-t) at 24 h [6] was 1980 ng·h/mL. For the same compound, the Cmax [7] was 738 ng/mL, the AUC(0-t) at 24 h [8] was 1800 ng·h/mL and the bioavailability [9] was 55%. The clearance [10] was 10 mL/min/kg and the Vd [11] was 0.7 L/kg.
In the case of COc1c(O[C@@H](C)c2ncc(F)cc2F)cc(C)n(-c2c(C)cnc(-c3ccnc(C(C)(C)O)n3)c2F)c1=O, the IC50 [4] is reported as 26 nM.
Work on CCc1c(O[C@@H](C)c2ncc(F)cc2F)cc(C)n(-c2c(C)cnc(-c3ccnc(C(C)(C)O)n3)c2F)c1=O yielded an IC50 [4] of 4 nM.
Cc1ccc(C(C)(C)O)cc1-c1ncc(C)c(-n2c(C)cc(OCc3ncc(F)cc3F)c(Cl)c2=O)c1F showed an IC50 [4] of 62 nM.
Cc1cnc(-c2ccnc(C(C)(C)O)n2)c(F)c1-n1c(C)cc(O[C@@H](C)c2ncc(F)cc2F)c(C=O)c1=O gave an IC50 [4] of 143 nM.
In the case of C=C(C)c1c(O[C@@H](C)c2ncc(F)cc2F)cc(C)n(-c2c(C)cnc(-c3ccnc(C(C)(C)O)n3)c2F)c1=O, the IC50 [4] is reported as greater than 1000 nM.
In the case of Cc1cnc(-c2ccnc(C(C)(C)O)n2)cc1-n1c(C)cc(COc2ncc(F)cc2F)c(Cl)c1=O, the IC50 [4] is reported as 1540 nM.
